Laboratory results reported in PubChem BioAssay (NCI).
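Grown in 96-well plates, cells were treated for 48 hours with each compound at five concentrations. Insufficient inhibition: endpoint recorded as highest concentration tested. Abbreviation: GI50, concentration required for 50% inhibition of growth. TGI: concentration producing complete growth inhibition.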

Legend:
Test in all cases: NCI tumour cell line growth inhibition, 48 h
SK-MEL-2 melanoma = system: SK-MEL-2 melanoma
CCRF-CEM leukemia = system: CCRF-CEM leukemia
ACHN renal = system: ACHN renal
M14 melanoma = system: M14 melanoma
SK-MEL-28 melanoma = system: SK-MEL-28 melanoma
MCF7 breast = system: MCF7 breast
SNB-75 CNS = system: SNB-75 CNS
HT29 colon = system: HT29 colon
NCI-H460 lung = system: NCI-H460 lung
LOX IMVI melanoma = system: LOX IMVI melanoma

SMILES | GI50 (SK-MEL-2 melanoma) [µM] | TGI (SK-MEL-2 melanoma) [µM] | GI50 (CCRF-CEM leukemia) [µM] | TGI (CCRF-CEM leukemia) [µM] | GI50 (ACHN renal) [µM] | TGI (ACHN renal) [µM] | GI50 (M14 melanoma) [µM] | TGI (M14 melanoma) [µM] | GI50 (SK-MEL-28 melanoma) [µM] | TGI (SK-MEL-28 melanoma) [µM] | GI50 (MCF7 breast) [µM] | TGI (MCF7 breast) [µM] | GI50 (SNB-75 CNS) [µM] | TGI (SNB-75 CNS) [µM] | GI50 (HT29 colon) [µM] | TGI (HT29 colon) [µM] | GI50 (NCI-H460 lung) [µM] | TGI (NCI-H460 lung) [µM] | GI50 (LOX IMVI melanoma) [µM] | TGI (LOX IMVI melanoma) [µM]
COc1ccc(C/C(C)=C(/c2ccc(OCCN3CCCCC3)cc2)c2ccc(OC(=O)NCc3ccccc3)cc2)cc1 | 0.46 | 0.879 | 0.523 | 1.55 | 0.434 | 0.78 | 0.344 | 0.731 | 0.44 | 0.818 | 0.0568 | 0.512 | 0.355 | 0.716 | 0.385 | 0.841 | 0.412 | 0.775 | 0.421 | 0.779
C#CC#CC#CC#CC#CC#CC#CC#CCC1OCC(COC(=O)O[C@@H](C(=O)O[C@H]2C[C@@]3(O)[C@@H](OC(=O)c4ccccc4)[C@@H]4[C@]5(OC(C)=O)CO[C@@H]5C[C@H](O)[C@@]4(C)C(=O)[C@H](OC(C)=O)C(=C2C)C3(C)C)[C@@H](NC(=O)c2ccccc2)c2ccccc2)O1 (some centres undefined) | 0.603 | > 33.3 | 0.191 | > 33.3 | > 24.7 | > 33.3 | 0.16 | – | 0.25 | > 33.3 | 0.0461 | > 33.3 | 0.0244 | 0.189 | 0.0387 | > 33.3 | 0.0426 | > 33.3 | 0.0275 | > 33.3
O=C1/C(=C/c2ccccc2)CN(C(=O)CCN2CCOCC2)C/C1=C\c1ccccc1 | – | 6.96 | – | 9.81 | – | 11.3 | – | 5.4 | – | 3.41 | – | 6.29 | – | 20 | – | 3.8 | – | 5.47 | – | 2.21
C[C@@H]1[C@H](C)N1CC(O)Cn1ccnc1[N+](=O)[O-] (some centres undefined) | – | > 100 | – | > 100 | – | > 100 | – | > 100 | – | > 100 | – | > 100 | – | > 100 | – | > 100 | – | > 100 | – | > 100
COc1cc(C(=O)c2c(-c3ccccc3)oc3c(OC)cccc23)cc(OC)c1OC | 2.4 | > 84.5 | 0.0532 | > 100 | 0.0719 | > 100 | – | – | 13.8 | > 100 | 0.153 | > 100 | 0.0234 | 0.552 | 0.0491 | > 100 | 0.0518 | > 100 | 0.0536 | > 100
CC1(C)C2CCC13C(=O)C1OC3(C2)C2C(=O)c3ccccc3C(=O)C12 (centres undefined) | > 100 | > 100 | 97 | > 100 | > 100 | > 100 | > 100 | > 100 | > 100 | > 100 | > 100 | > 100 | > 100 | > 100 | > 100 | > 100 | > 100 | > 100 | – | –
O=C1c2cc3c(cc2[C@@H]2[C@H]1c1ccc([N+](=O)[O-])cc1C(=O)N2CCCBr)OCO3 | 2.15 | > 100 | – | – | < 0.01 | < 0.01 | < 0.01 | 0.318 | < 0.01 | > 100 | < 0.01 | < 0.01 | < 0.01 | 0.0775 | < 0.01 | > 100 | – | – | < 0.01 | < 0.0117
COc1cc2c(cc1OC)[C@H](C)N1CCc3cc(OC)c(OC)cc3[C@@H]1C2 | – | > 100 | – | > 100 | – | > 100 | – | – | – | > 100 | – | > 100 | – | > 100 | – | > 100 | – | > 100 | – | > 100
O=C1OCC2=C1C(c1cccc(Cl)c1)c1cc3c(cc1N2CCO)OCCO3 (centres undefined) | 0.0335 | 0.607 | 0.112 | > 100 | 0.0733 | > 100 | 0.0493 | 1.57 | 0.0839 | > 100 | 0.0379 | 97.6 | 0.0419 | 39.3 | 0.0402 | 0.282 | 0.0494 | 4.59 | 0.0689 | 17.9
CC(C)(C)C(=O)OCC1C(=O)OCC1C(=O)N1Cc2cc3ccccc3nc2C1 (centres undefined) | – | 22.1 | – | 5.89 | – | 7.54 | – | 8.08 | – | 10.8 | – | 14.6 | – | 19.9 | – | 14.2 | – | 5.52 | – | 15.3
CC1=C(c2cccc(O)c2)[C@H](c2ccc(OCCN3CC(CF)C3)cc2)Oc2ccc(O)cc21 | 7.2 | 20.9 | 4.72 | 21.2 | 6.2 | 18.6 | 2.93 | 9.45 | 5.3 | 18 | 0.0194 | 13.4 | 10.5 | 22.3 | 3.52 | 12.8 | 4.94 | 18.2 | 2.23 | 5.16
N#C/C(=C\c1ccsc1)c1nc2ccccc2o1 | 98.5 | > 100 | – | 26.3 | 45.2 | > 100 | > 100 | > 100 | > 100 | > 100 | 17.8 | > 100 | 24.5 | 65.5 | > 100 | > 100 | > 100 | > 100 | > 100 | > 100
Cc1cc2c(C(C)C)c(O)c(O)cc2c(O)c1-c1c(C)cc2c(C(C)C)c(O)c(O)cc2c1O | 17.7 | 33.9 | 3.91 | 21.5 | 8.66 | 21.9 | 12.3 | 27.6 | 16.8 | 32.8 | 11.4 | 29.5 | 24.5 | 60 | 20.1 | 39.6 | 11.8 | 40 | 4.42 | 16.2
COc1ccc2c(c1)NC1=C(C(=O)OC1)C2c1cc(OC)c2c(c1)OCO2 (centres undefined) | 0.0299 | > 100 | < 0.0187 | > 100 | 0.0567 | > 100 | 0.0132 | 0.0585 | – | > 100 | < 0.0158 | > 100 | 0.0426 | 43.3 | 0.0314 | > 100 | 0.0274 | > 100 | < 0.0189 | > 100
O=C(C/C(=N/O)C(=O)NC1=C(Cl)C(=O)c2ccccc2C1=O)CC(c1ccccc1)c1c(O)c2ccccc2oc1=O (centres undefined) | – | 32.4 | – | > 100 | – | 65.7 | – | 18.6 | – | > 100 | – | 26.8 | – | 19 | – | 44.3 | – | 16 | – | > 100
O=c1cnn(C2OC(CO)C(O)C2O)c(=S)[nH]1 (centres undefined) | – | > 100 | – | > 100 | – | > 100 | – | > 100 | – | > 100 | – | > 100 | – | > 100 | – | > 100 | – | > 41.7 | – | > 68.5
Cn1ncnc1[C@H]1c2n[nH]c(=O)c3cc(F)cc(c23)N[C@@H]1c1ccc(F)cc1 | > 100 | > 100 | 1.27 | > 100 | 54.3 | > 100 | 4.19 | > 100 | > 100 | > 100 | 0.701 | > 100 | 15.1 | > 100 | > 100 | > 100 | 0.0354 | > 100 | 4.75 | > 100
O=C1C(Nc2ccc(Cl)cc2)=C(I)C(=O)c2ncccc21 | 1.55 | 3.03 | 0.784 | 5.88 | 0.376 | 1.32 | 0.828 | 2.26 | 1.64 | 3.02 | 0.289 | 1.16 | 1.31 | 3.09 | – | – | – | – | 0.624 | 2.11
O=C(Nc1cccc(-n2cc(-c3ccncc3)c(-c3ccc(Cl)c(O)c3)n2)c1)Nc1cc(C(F)(F)F)cc(C(F)(F)F)c1 | 0.999 | 2.18 | 0.789 | 6.78 | 0.669 | 4.2 | 0.692 | 1.9 | 0.807 | 1.61 | 0.666 | 4.62 | 0.896 | 2.3 | 0.711 | 1.64 | 0.391 | 1.36 | 0.712 | 1.4
COc1cccc(N2C(=O)C3c4[nH]c5ccccc5c4C4CCCC4C3C2=O)c1 (centres undefined) | – | > 10 | – | > 10 | – | > 10 | – | > 10 | – | > 10 | – | > 10 | – | 5.77 | – | > 10 | – | > 10 | – | > 10
CSC1=C(N)C(=O)c2[nH]cc(CO)c2C1=N | 0.211 | 0.503 | 0.223 | 0.762 | – | – | 0.139 | 0.285 | 0.267 | 0.618 | 0.16 | 0.407 | 0.165 | 0.307 | 0.161 | 0.498 | 0.154 | 0.338 | 0.134 | 0.283
Cc1c(Cl)cccc1C(=O)Nc1nc2c(s1)CN(C(=O)c1ccc(C(F)(F)F)cc1)CC2 | 0.202 | > 50 | 0.135 | > 50 | 0.267 | > 40.9 | 0.0483 | 38.4 | 4.11 | > 50 | 0.0281 | > 37.7 | 0.0814 | > 50 | 0.0753 | 9.2 | 0.158 | > 20.4 | 0.163 | > 23.1
Cc1cc2c(cc1Cl)SC1=NN(C)C(C)N1S2(=O)=O (centres undefined) | > 100 | > 100 | > 100 | > 100 | > 100 | > 100 | > 100 | > 100 | > 100 | > 100 | 36 | > 100 | 35.3 | > 100 | > 100 | > 100 | > 100 | > 100 | > 100 | > 100
COc1cccc(-c2c[nH]c3c(N/N=C/c4ccncc4)ncnc23)c1 | 1.7 | 6.15 | 1.93 | > 25 | 1.37 | > 22.9 | 3.19 | 9.54 | 3.42 | > 16 | 1.93 | 5.91 | 1.47 | 6.78 | 1.58 | 8.9 | 1.4 | 5.89 | 1.27 | 6.73
NCCCC[C@@H]1NC(=O)[C@H]2CCCN2C(=O)[C@H](Cc2ccccc2)CNC(=O)[C@H](Cc2ccccc2)NC1=O | > 37.5 | > 37.5 | – | – | > 37.5 | > 37.5 | > 37.5 | > 37.5 | > 37.5 | > 37.5 | > 37.5 | > 37.5 | > 37.5 | > 37.5 | > 37.5 | > 37.5 | > 37.5 | > 37.5 | > 37.5 | > 37.5
CCCCOC(=O)N1CCN(/[N+]([O-])=N/Oc2ccc([N+](=O)[O-])cc2[N+](=O)[O-])CC1 | 4.55 | 21.8 | – | – | 2.53 | 7.19 | – | – | 13.7 | 35.7 | 3.31 | 8.57 | 21.1 | 37.9 | 4.67 | > 100 | 4.94 | > 100 | 2.27 | 5.06
COc1ccc2c(CN3CCCC[C@H]3C(=O)O)cc3cc4c(cc3c2c1)OCO4 | – | – | 2.94 | 13.5 | 0.46 | 2.43 | 3.72 | 10.5 | 0.7 | 2.33 | 0.366 | 2.8 | 0.397 | 2.28 | 0.374 | 1.85 | 0.359 | 2.23 | 1.37 | 3.15
